# Test results reported in publication PMC10132233 (Journal of Enzyme Inhibition and Medicinal Chemistry, 2023).
# Test system: 22RV1 cells
# Assay: Apoptosis analysis (Annexin V-PE/DAPI), 22RV1
# Format: cell-based, human
# Settings: 22RV1, compound at its IC50, 24 h
# Protocol: The control PC3 and 22RV1 cells and compound-treated cells were stained with PE-Annexin V and DAPI for a more appropriate cell death examination, and the cellular fluorescence analysis was then performed using ADAMII LS (Figures 4–6). Apoptosis is a type of programmed cell death that can be detected using Annexin V and the DAPI reagent. On plasma membranes, annexin V binds to […] and DAPI can bind to DNA in cells. The dot plot and image data detect early and late apoptotic cells using these two fluorophores. […] Moreover, compound 9f-treated PC3 cells went through early apoptosis (6.27%), and late apoptosis phase (16.94%) (Figures 4(D) and 6). Likewise, the fluorescence images for 22RV1 (Figure 5) and PC3 (Figure 6) cells complement the dot plot data, as higher fluorescence of DAPI and RF images clearly distinguished compound 9f-treated cells from control. […]
# Annexin V conjugated to fluorochromes (PE) retains its high affinity for phosphatidylserine (PS), making it a sensitive probe for flow cytometric analysis of apoptotic cells. […] When apoptosis is measured over time, cells can often be tracked from PE Annexin V and DAPI negative (viable, or no measurable apoptosis), to PE Annexin V positive and DAPI negative (early apoptosis), and finally to PE Annexin V and DAPI positive (end stage apoptosis and death). […]
compound,measurement,value
"COc1cc2ncnc(Nc3ccc(Oc4cccc(C(F)(F)F)c4)c(Cl)c3)c2cc1OCCCCn1ccnc1[N+](=O)[O-] [Compound 9f, N-(3-Chloro-4-(3-(trifluoromethyl)phenoxy)phenyl)-7-methoxy-6-(4-(2-nitro-1H-imidazol-1-yl)butoxy)quinazolin-4-amine]",early apoptosis (E.A),13.20%
same,late apoptosis (L.A),15.38%
